The results in this text go back to article PMC8544881 (mSphere, 2021).

The target of this test is T1, ZBTB25 (Homo sapiens, UniProt P24278).
T1 construct: recombinant ZBTB25 protein
T1 sequence (P24278 1-435): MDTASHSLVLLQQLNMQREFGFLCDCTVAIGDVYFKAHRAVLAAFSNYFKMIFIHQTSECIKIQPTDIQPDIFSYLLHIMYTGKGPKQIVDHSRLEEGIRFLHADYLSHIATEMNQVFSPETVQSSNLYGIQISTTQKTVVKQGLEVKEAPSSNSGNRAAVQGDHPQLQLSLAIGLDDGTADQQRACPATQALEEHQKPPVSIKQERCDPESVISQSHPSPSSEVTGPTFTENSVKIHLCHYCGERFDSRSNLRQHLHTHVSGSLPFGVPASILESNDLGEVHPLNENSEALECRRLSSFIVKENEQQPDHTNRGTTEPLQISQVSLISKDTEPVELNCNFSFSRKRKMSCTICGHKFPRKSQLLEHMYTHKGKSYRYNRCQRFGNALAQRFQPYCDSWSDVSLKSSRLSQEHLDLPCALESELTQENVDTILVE
Description: zinc ejection assay with FluoZin-3 fluorescence. The class given is binding.

In general, IC50 refers to the midpoint of a concentration-inhibition curve. A high value points to weaker potency in that assay. `CCN(CC)C(=S)SSC(=S)N(CC)CC` [DS, disulfiram]: the IC50 amounted to 10.3 ± 0.3 µM.

dithiopyridine [DP]: the IC50 is 4.61 ± 0.28 µM.
